Experimental data from patent publication US20260365670A1, “EGFR INHIBITORS AND USES THEREOF” (DIZAL (JIANGSU) PHARMACEUTICAL CO., LTD., priority 2022, published 2026).
Read-outs that look alike come from different tables or passages of the source.

What was measured:
[1] = test system: PC-9; assay: Cell proliferation assay, PC-9 cells (CellTiter-Glo, 72 hours); format: cell-based; conditions: PC9 cells, CellTiter-Glo, read-out: PC9 GI50
Procedure: (§1) Biological Example 2: Cell Proliferation Assays
(§2) Ba/F3 cells expressing EGFR mutations were seeded in 384-well plates at 5000 cells/well in RPMI1640 medium containing […]. PC-9 at 500 cells/well was seeded into 384-well plates in RPMI1640 medium with 10% FBS. After overnight incubation, the assay plates were dosed with compounds at a series of concentrations. Alongside dosing the assay plates, the day 0 plate was processed using CellTiter-Glo® Luminescent Cell Viability Assay (Promega) to measure the number of viable cells (G0). The assay plates were further incubated for 72 hours and the number of viable cells (G3) was measured. The percentage of proliferation was calculated as: […]=100×(G3 value of sample well−G0 value)/(G3 value of DMSO control−G0 value). The concentration of compound producing 50% proliferation inhibition (GI50) was further calculated in best-fit curves using XLFit software. N/A=not available.

[2] = test system: Ba/F3 cells expressing EGFR mutations; assay: Cell proliferation assay, Ba/F3 cells expressing EGFR mutations (CellTiter-Glo, 72 hours); format: cell-based; conditions: CellTiter-Glo
Procedure: as §1, §2

[3] = BaF3 cells, EGFR DEL19-C797S, read-out: DEL19-C797S/BaF3 GI50
[4] = BaF3 cells, EGFR DEL19-T790-C797S, read-out: DEL19-T790-C797S/BaF3 GI50
[5] = BaF3 cells, EGFR L858R, read-out: L858R/BaF3 GI50
[6] = BaF3 cells, EGFR L858R-C797S, read-out: L858R-C797S/BaF3 GI50
[7] = BaF3 cells, EGFR L858R-T790-C797S, read-out: L858R-T790-C797S/BaF3 GI50
[8] = BaF3 cells, EGFR L858R-T790M, read-out: L858R-T790M/BaF3 GI50
[9] = EGFR DEL19-T790M, read-out: DEL19-T790M GI50

| GI50 [1] [µM] | GI50 [2, 3] [µM] | GI50 [2, 4] [µM] | GI50 [2, 5] [µM] | GI50 [2, 6] [µM] | GI50 [2, 7] [µM] | GI50 [2, 8] [µM] | GI50 [2, 9] [µM] | SMILES |
| --- | --- | --- | --- | --- | --- | --- | --- | --- |
| 0.705 | 0.177 | 0.466 | 1.14 | 0.709 | 0.6 | 2.13 | 0.622 | CN(C)[C@H]1CCN(c2ccc3nc4n(c3c2)C23CCC(CN(CCOc5c(cnn5C)-c5cc(cn(C)c5=O)C(=O)N4)C2)C3)C1 (single isomer, unassigned) [Example A66A] |
| 0.703 | 0.156 | 0.548 | 1.58 | 0.688 | 0.549 | 1.52 | 0.723 | CN(C)[C@@H]1CCN(c2ccc3nc4n(c3c2)C23CCC(CN(CCOc5c(cnn5C)-c5cc(cn(C)c5=O)C(=O)N4)C2)C3)C1 (single isomer, unassigned) [Example A66C] |
| 1.06 | 0.351 | 1.05 | 0.866 | 0.632 | 1.82 | 2.77 | 1.23 | CN(C)CC1(F)CN(c2ccc3nc4n(c3c2)C23CCC(CN(CCOc5c(cnn5C)-c5cc(cn(C)c5=O)C(=O)N4)C2)C3)C1 (single isomer, unassigned) [Example A72A] |
| 0.515 | 0.094 | 0.302 | 0.55 | 0.357 | 0.184 | 1.1 | 0.19 | CN1CC2(CCN(c3ccc4nc5n(c4c3)C34CCC(CN(CCOc6c(cnn6C)-c6cc(cn(C)c6=O)C(=O)N5)C3)C4)C2)C1 (single isomer, unassigned) [Example A73A] |
| 0.295 | 0.135 | 0.587 | 0.312 | 0.193 | 0.523 | 0.45 | 0.477 | CN1CCN(C2CCN(c3ccc4nc5n(c4c3)C34CCC(CN(CCOc6c(cnn6C)-c6cc(cn(C)c6=O)C(=O)N5)C3)C4)C2)CC1 (single isomer, unassigned) [Example A80A, 15,21-Dimethyl-5-[3-(4-methylpiperazin-1-yl)pyrrolidin-1-yl]-23-oxa-2,9,11,15,20,21,26-heptaazaheptacyclo[24.4.1.1^{1,28}.1^{13,17}.0^{2,10}.0^{3,8}.0^{18,22}]tritriaconta-3,5,7,9,13,17(33),18(22),19-octaene-12,16-dione] |
| 0.0036 | 0.0005 | 0.0007 | 0.00063 | 0.0005 | 0.00073 | 0.00067 | 0.0007 | CN1CCN(C2CCN(c3ccc4nc5n(c4c3)C34CCC(CN(CCOc6c(cnn6C)-c6cc(cn(C)c6=O)C(=O)N5)C3)C4)C2)CC1 (single isomer, unassigned) [Example A80B2, 15,21-Dimethyl-5-[3-(4-methylpiperazin-1-yl)pyrrolidin-1-yl]-23-oxa-2,9,11,15,20,21,26-heptaazaheptacyclo[24.4.1.1^{1,28}.1^{13,17}.0^{2,10}.0^{3,8}.0^{18,22}]tritriaconta-3,5,7,9,13,17(33),18(22),19-octaene-12,16-dione] |
